Source: patent US7579322B2, “Compositions and methods for promoting myocardial and peripheral angiogenesis” (Zimmer Orthobiologics, Inc., priority 2001, dated 2009)
Ends that are not written are not given here.

Key:
[1] = test system: human smooth muscle cells; test: In vitro cell migration assay (chemotaxis tray), smooth muscle cells; type: cell-based; conditions: compared to controls; 4 hours incubation
Method: (§1) The ability of IGD-motif peptides according to the present invention to promote cell migration of human endothelial and smooth muscle cells, which are processes characteristic of angiogenesis, was evaluated by conducting cell migration assays for the peptides of SEQ ID NOS 1 and 2, and a scramble of the IGD peptide characterized by the DIG sequence. A capped version of the scramble characterized by the GGDIGGG (SEQ ID NO:7) sequence was also tested.
(§2) Chemotaxis trays (Chemo Tx disposable migration chamber, 6 mm diameter, 300 μl/well, 96 wells with 8 μm filter membranes from Neuro Probe, Inc., Gaithersville, Md.) for evaluating cell migration of the peptides were sterilized by placing the trays under UV light overnight. Further operations with the membrane were carried out under aseptic conditions. The filter membranes were loaded with gelatin to provide a suitable environment for the cells testing by soaking in 3% acetic acid overnight and then for 2 hours in 0.1 mg/ml gelatin. They were then rinsed in sterile water and allowed to air dry. Such membranes may be stored at room temperature for up to 1 month.
The cells to be used in the assay (endothelial cells or smooth muscle cells) were starved for 24 hours before use in appropriate culture media containing 0.1% Fetal Bovine Serum (“FBS”) instead of the customary 10% FBS serum, and 1× penicillin-streptomycin antibiotics. The wells of the 96 well chamber of the chemotaxis unit were filled with media containing 0.1% serum alone or 0.1% serum and the test material (control or chemoattractant respectively). […]
After incubation the lid was removed and with the filter still in place the cells on the upper surface of the membrane were gently wiped off and washed by carefully flushing the top surface of the filter with media by holding the plate with filter at a 45° angle over a container. […] The membrane was then allowed to dry and the number of cells that migrated through the filter pores was determined by counting the number in a field under a light microscope.

[2] = test system: human aortic endothelial cells; test: In vitro cell migration assay (chemotaxis tray / modified Boyden chamber), endothelial cells; type: cell-based; conditions: for migration of human aortic endothelial cells: compared to negative control / scramble peptides, 4 hours incubation
Method: as §1, §2
The cells to be used in the assay (endothelial cells or smooth muscle cells) were starved for 24 hours before use in appropriate culture media containing 0.1% Fetal Bovine Serum (“FBS”) instead of the customary 10% FBS serum, and 1× penicillin-streptomycin antibiotics. The wells of the 96 well chamber of the chemotaxis unit were filled with media containing 0.1% serum alone or 0.1% serum and the test material (control or chemoattractant respectively). The filter membrane was positioned over the plate, aligning the holes in the corners of the frame with the four pins on the microplate, and the membrane was snapped into place making sure that the media in the wells touched the membrane completely. Fifty (50) μl of cell suspension in the starvation-media, at a concentration of 4×10^4 viable cells per charge were plated onto each site (over each well). The plate was incubated at 37° C. in an atmosphere of 5% CO2 for 4 hours.
After incubation the lid was removed and with the filter still in place the cells on the upper surface of the membrane were gently wiped off and washed by carefully flushing the top surface of the filter with media by holding the plate with filter at a 45° angle over a container. The cells on the undersurface of the membrane were then fixed in methanol (˜20 minutes) and stain with Diff-Quik Staining Set. The membrane was then allowed to dry and the number of cells that migrated through the filter pores was determined by counting the number in a field under a light microscope.

[3] = test system: human aortic endothelial cells; test: In vitro cell proliferation assay (CyQuant); type: cell-based; conditions: for proliferation of human aortic endothelial cells: compared to controls, 48 hours, two different concentrations
Method: The capacity of IGD-motif peptides according to the present invention to promote […] of human aortic endothelial cells was evaluated by conducting in vitro cell proliferation assays for the peptide of SEQ ID NOS 1 and 2, the DIG scramble peptide, and the capped version of the scramble, GGDIGGG (SEQ ID NO:7). Human aortic endothelial cells grown to ˜95% confluency were seeded (5000 cells/well) in growth medium for four hours to allow cells to adhere. The cells were then transferred to the starvation medium described in Example 1 and starved for about 18 hours. The cells were then transferred to starvation medium containing the test peptide, and the cells were allowed to proliferate for an additional 48 hours. The medium was then removed and the wells were washed with PBS. The cells were then subjected to a single freeze-thaw cycle. CyQuant reagent (Molecular Probes, Eugene, Oreg.) was then added to the cells according to the manufacturer's instructions and the cells incubated for 5 minutes in the dark. The intensity of the color—which is directly proportional to the number of cells—is read at an excitation wavelength of 485 nm and the emission wavelength set at 535 nm.

[4] = test system: quail chorioallantoic membrane (CAM); test: Quail chorioallantoic membrane (CAM) angiogenesis assay; type: in vivo, Japanese quail (cotumix cotumix japonica); conditions: for angiogenesis / increase in blood vessels in quail CAM: 24 hours incubation, compared to controls / scramble peptides
Method: The activity of IGD-motif peptides for inducing migration and proliferation in endothelial or smooth muscle cells in an in vitro quail chorioallantoic membrane (CAM) model was assayed in a similar manner to that described by Parsons-Wingerter et al., Microvascular Research 55:201-214 (1998), the disclosure of which is hereby incorporated herein by reference. Briefly, fertilized Japanese quail eggs (cotumix cotumix japonica) were opened onto petri dishes on day 3 post-incubation. After 7 days of culture, the four IGD-motif peptides tested in Examples 1 and 2 (IGD, GGIGD (residues 1-5 of SEQ ID NO:2), DIG, GGDIGGG (SEQ ID NO: 7)) each dissolved in 1% polyvinyl pyrrolidine prewarmed to 37° C., were distributed evenly onto the surface of a CAM in separate petri dishes. After 24 hours of incubation, the CAM's were fixed, dissected and photographed at 10× magnification to visualize the arterial vascular tree, including endstage vessels. Digital images of triplicate CAM specimens were acquired at 10× magnification in grayscale, binarized to black-and-white, and skeletonized. The vessel branching pattern was analyzed and quantified by the fractal dimension.

dermal fibroblasts = conditions: cited from earlier work
rat wound healing model = conditions: under certain conditions; cited from earlier work

Substance: GGDIGGG (not fully specified) [reference compound]
- cell migration of human smooth muscle cells [1]: Neither the DIG scramble nor the capped GGDIGGG scramble (SEQ ID NO:7) showed cell migration significantly greater than controls
- migration of human aortic endothelial cells [2]: Neither the DIG scramble nor the capped GGDIGGG scramble (SEQ ID NO:7) showed cell migration significantly greater than controls
- proliferation of human aortic endothelial cells [3]: Neither the DIG scramble nor the capped GGDIGGG scramble (SEQ ID NO:7), in contrast, showed cell migration significantly greater than controls
- angiogenesis / increase in blood vessels in quail CAM [4]: neither the DIG scramble nor the GGDIGGG (SEQ ID NO:7) capped scramble promoted angiogenesis significantly better than controls

Substance: GGIGDGG (not fully specified) [Gly-Gly-Ile-Gly-Asp-Gly-Gly]
- cell migration of human smooth muscle cells [1]: promoted cell migration
- migration of human aortic endothelial cells compared to the uncapped peptide ([2]; at a 10-fold lower concentration, FIG. 1A): better migration compared to the uncapped peptide
- migration of human aortic endothelial cells [2]: increased migratory response
- migration of human aortic endothelial cells ([2]; listed as SEQ ID NO. 2): promoted cell migration
- proliferation response relative to the uncapped tripeptide ([3]; FIG. 2): nearly twice that of the uncapped tripeptide
- proliferation of human aortic endothelial cells [3]: promoted cell proliferation
- angiogenesis / increase in blood vessels in quail CAM [4]: promoted angiogenesis
- angiogenesis / increase in blood vessels in quail CAM ([4]; listed as capped peptide): increase in blood vessels
- blood vessel increase in quail CAM compared to the uncapped peptide ([4]; at equivalent concentrations, FIG. 3A): better than the uncapped peptide

Substance: Ile-Gly-Asp (IGD; Cell-attachment-promoting peptide)
- cell migration of human smooth muscle cells [1]: promoted cell migration
- optimal concentration for migration of human aortic endothelial cells ([2]; FIG. 1A): 100 μm
- migration of human aortic endothelial cells [2]: increased migratory response
- migration of human aortic endothelial cells ([2]; listed as IGD tripeptide): dose dependent effect
- migration of human aortic endothelial cells ([2]; listed as SEQ ID NO. 1): promoted cell migration
- proliferation of human aortic endothelial cells [3]: promoted cell proliferation
- angiogenesis / increase in blood vessels in quail CAM [4]: promoted angiogenesis
- angiogenesis / increase in blood vessels in quail CAM ([4]; listed as uncapped peptide): increase in blood vessels
- cell migration of dermal fibroblasts (dermal fibroblasts): can induce cell migration

Substance: Ile-Gly-Asp-Ser (IGDS; Cell-attachment-promoting peptide)
- fibroblast migration (rat wound healing model): increase
- vessel number (rat wound healing model): increase
